Ten molecules from ChEMBL document CHEMBL5506017, “Brain-Permeable Immunoproteasome-Targeting Macrocyclic Peptide Epoxyketones for Alzheimer's Disease” (J Med Chem, 2024) can be followed below.

The source made the active and inactive calls. The rule behind the calls is not given here.

Data set [1] is described as follows: Apparent permeability of the compound across basal to apical side in human Caco-2 cells expressing Pgp/BCRP at 10 uM incubated for 120 mins by LC-MS/MS analysis. Format: ADME, cell-based. The conditions noted are these: caco-2, 2 h.
Data set [2] is described as follows: Efflux ratio of apparent permeability across basolateral to apical side over apical to basolateral side in human Caco-2 cells expressing Pgp/BCRP at 10 uM incubated for 120 mins by LC-MS/MS analysis. The data set is classed as ADME, cell-based. To be noted: caco-2, 2 h.
The nature of data set [3]: Cytotoxicity against human HMC3 cells assessed as reduction in cell viability incubated for 96 hrs by CellTiter 96 Aqueous One Solution Cell Proliferation Assay. Format: toxicity, cell-based.
Data set [4] can be described thus: Metabolic stability in human liver microsomes assessed as half life at 2 uM measured upto 60 mins by LC-MS/MS analysis. To be noted: 1 h. Format: ADME, Microsome.
A short description of data set [5]: Metabolic stability in human liver microsomes assessed as parent compound remaining at 2 uM measured at 60 mins by LC-MS/MS analysis. Format: ADME, Microsome. The conditions noted are these: 1 h.
A short description of data set [6]: Apparent permeability of the compound across apical to basolateral side in human Caco-2 cells expressing Pgp/BCRP at 10 uM incubated for 120 mins by LC-MS/MS analysis. To be noted: caco-2, 2 h. Format: ADME, cell-based.
A short description of data set [7]: Cytotoxicity against human ARPE-19 cells assessed as reduction in cell viability incubated for 96 hrs by CellTiter 96 Aqueous One Solution Cell Proliferation Assay. Format: toxicity, cell-based.
Data set [8] has as its target T1, Proteasome subunit beta type-9 (Homo sapiens, UniProt P28065).
T1 sequence (P28065 whole entry): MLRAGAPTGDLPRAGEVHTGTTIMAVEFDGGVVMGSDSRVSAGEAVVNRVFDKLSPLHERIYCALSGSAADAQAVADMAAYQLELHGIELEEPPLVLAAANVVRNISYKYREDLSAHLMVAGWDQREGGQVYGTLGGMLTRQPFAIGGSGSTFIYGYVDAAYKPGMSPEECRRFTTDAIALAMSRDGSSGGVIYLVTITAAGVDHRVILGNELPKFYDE
The data set is described as follows: Inhibition of human LMP2 using Ac-PAL-AMC as substrate incubated for 1 hr by fluorescence based SpectraMax M5e plate reader.

The subject of the next data set is ARPE-19. The data set is described as follows: Cytotoxicity against human ARPE-19 cells assessed as reduction in cell viability at 30 to 100 uM incubated for 96 hrs by CellTiter 96 Aqueous One Solution Cell Proliferation Assay. The data set is classed as toxicity, cell-based. The conditions noted are these: arpe-19, 96 h, dose 30-100 µM.
The subject of another data set is HMC3. The data set is described as follows: Cytotoxicity against human HMC3 cells assessed as reduction in cell viability at 30 to 100 uM incubated for 96 hrs by CellTiter 96 Aqueous One Solution Cell Proliferation Assay. The data set is classed as toxicity, cell-based. The conditions noted are these: hmc3, 96 h, dose 30-100 µM.
Data set [9] in a line: Mutagenicity in Salmonella typhimurium TA98 at 1 mg/ml incubated for 90 mins in absence of liver S9 fraction by AMES test. Format: toxicity. The conditions noted are these: salmonella enterica subsp. enterica serovar typhimurium, s9, 1.5 h.
Data set [10] can be described thus: Mutagenicity in Salmonella typhimurium TA100 at 0.01 to 100 uM incubated for 90 mins in absence of liver S9 fraction by AMES test. The data set is classed as toxicity. To be noted: salmonella enterica subsp. enterica serovar typhimurium, s9, 1.5 h, dose 0.01-100 µM.
The nature of data set [11]: Mutagenicity in Salmonella typhimurium TA98 at 0.01 to 100 uM incubated for 90 mins in absence of liver S9 fraction by AMES test. Format: toxicity. To be noted: salmonella enterica subsp. enterica serovar typhimurium, s9, 1.5 h, dose 0.01-100 µM.
Data set [12] addresses T2, Proteasome subunit beta type-9 (Mus musculus) (UniProt P28076).
T2 sequence (whole entry): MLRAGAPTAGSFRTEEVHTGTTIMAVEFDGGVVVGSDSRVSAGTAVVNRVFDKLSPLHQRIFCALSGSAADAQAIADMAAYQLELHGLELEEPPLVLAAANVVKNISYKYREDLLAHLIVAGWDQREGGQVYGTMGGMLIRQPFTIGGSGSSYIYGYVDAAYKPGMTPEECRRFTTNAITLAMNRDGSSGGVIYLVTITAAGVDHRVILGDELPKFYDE
The data set is described as follows: Covalent inhibition of LMP2 in mouse BV-2 cells assessed as band shift at 0.3 to 3 uM incubated for 24 hrs by Western blot analysis. The data set is classed as cell-based. The conditions noted are these: dose 0.3-3 µM.

Data set [13] is described as follows: Mutagenicity in Salmonella typhimurium TA100 at 0.01 to 100 uM incubated for 90 mins in presence of liver S9 fraction by AMES test. To be noted: salmonella enterica subsp. enterica serovar typhimurium, s9, 1.5 h, dose 0.01-100 µM. The data set is classed as toxicity, subcellular.
The nature of data set [14]: Mutagenicity in Salmonella typhimurium TA98 at 0.01 to 100 uM incubated for 90 mins in presence of liver S9 fraction by AMES test. The data set is classed as toxicity, subcellular. To be noted: salmonella enterica subsp. enterica serovar typhimurium, s9, 1.5 h, dose 0.01-100 µM.

In the case of `CC(C)C[C@H](NC(=O)[C@H](CCc1ccccc1)NC(=O)CN1CCOCC1)C(=O)N[C@@H](Cc1ccccc1)C(=O)N[C@@H](CC(C)C)C(=O)[C@@]1(C)CO1` [CARFILZOMIB], the Papp is given as 5.16 10^-6 cm/s in data set [1] and 0.558 10^-6 cm/s in data set [6]. For the same molecule, the Ratio in data set [2] is recorded as 9.33. For the same molecule, the concentration for half-maximal inhibition (IC50) at 96 h in [3] is 0.016 µM; in data set [7], 0.058 µM. The t1/2 in [4] was 1.34 min. In [5], the Stability entry is listed as “Unstable”.
`C[C@]1(C(=O)[C@H](CC2=CCCC2)NC(=O)[C@@H]2Cc3ccc(cc3)OCCCCCCCC(=O)N3CCC[C@H]3C(=O)N2)CO1`: the Papp is 1.05 10^-6 cm/s in data set [1] and 2.44 10^-6 cm/s in [6]. The Ratio in data set [2] came out at 0.43. In addition, the half-maximal inhibitory concentration (IC50) in data set [8] worked out at 220 nM. Further, the Stability result in data set [5] is given as “Unstable”.
In the case of `CC(C)C[C@H](NC(=O)[C@@H]1COCCCCCCC(=O)NCC(=O)N2CCC[C@H]2C(=O)N1)C(=O)[C@@]1(C)CO1`, the Papp is given as 8.64 10^-6 cm/s in data set [1] and 0.39 10^-6 cm/s in [6]. The Ratio in [2] turned out to be 22.2. The t1/2 in [4] came out at 24.1 min. Further, the Stability in data set [5] was 17%.
Take `C[C@]1(C(=O)[C@H](Cc2ccccc2)NC(=O)[C@@H]2COCCCCCC(=O)N3C[C@H](F)C[C@H]3C(=O)N2)CO1`: the Papp is given as 12.6 10^-6 cm/s in data set [1] and 7.52 10^-6 cm/s in data set [6]. In addition, the Ratio in data set [2] is 1.68. The molecule also registered an IC50 in data set [8] of 127 nM. Also, the t1/2 in data set [4] is 13.4 min. In addition, in data set [5], the Stability is reported as 4.57%.
On to `C[C@]1(C(=O)[C@H](Cc2ccccc2)NC(=O)[C@@H]2Cc3ccc(cc3)OCCCCCCCC(=O)N3CCC[C@H]3C(=O)N2)CO1`, for which the Papp in data set [1] is 3.33 10^-6 cm/s; in data set [6], 5.91 10^-6 cm/s. In addition, the Ratio in data set [2] worked out at 0.56. Also, in [4], the t1/2 stood at 1.35 min. Moreover, the Stability result in [5] is on record as “Unstable”.
Turning to `CC(C)C[C@H](NC(=O)[C@@H]1COCCCCCC(=O)N2CC(F)(F)C[C@H]2C(=O)N1)C(=O)[C@@]1(C)CO1`, the Papp is listed as 14.4 10^-6 cm/s in [1] and 29.1 10^-6 cm/s in [6]. Also, the Ratio in data set [2] was 0.52. The Activity result in the data set on ARPE-19 is on record as “Non-Toxic”; with HMC3 it was “Non-Toxic”; in data set [9], “Toxic”. Further, the 50% inhibitory concentration (IC50) at 96 h in data set [3] and in data set [7] was > 100 µM in each case. Besides, the t1/2 in [4] came out at 21.6 min. Also, in data set [5], the Stability was 13.5%.
As to `C[C@]1(C(=O)[C@H](CC2=CCCC2)NC(=O)[C@@H]2COCCCCCC(=O)N3C[C@H](F)C[C@H]3C(=O)N2)CO1`, the Papp in data set [1] was 9.06 10^-6 cm/s; in [6] it was 8.03 10^-6 cm/s. For the same molecule, the Activity entry (in [10]; in the data set with ARPE-19; in data set [11]; in [13]; with HMC3; in data set [14]) was “Non-Toxic” in each case. Also, the Ratio in data set [2] worked out at 1.13. This molecule gave an IC50 in data set [8] of 137 nM. In addition, the IC50 at 96 h in data set [3] and in data set [7] was > 100 µM each time. Besides, the t1/2 in [4] worked out at 8.29 min. For the same molecule, the inhibition result in data set [12] is “Active”. Moreover, the Stability in data set [5] is reported as 0.3%.
As for `CC(C)C[C@H](NC(=O)[C@@H]1COCCCCCC(=O)NCC(=O)N2CCC[C@H]2C(=O)N1)C(=O)[C@@]1(C)CO1`, the values for the Papp in data set [1] and in data set [6] were 7.25 10^-6 cm/s and 0.454 10^-6 cm/s, respectively. The Ratio in data set [2] turned out to be 21.7. Also, the t1/2 in data set [4] is recorded as 55.3 min. The Stability in data set [5] is 46.4%.
Take `CC(C)C[C@H](NC(=O)[C@@H]1COCCCCCC(=O)N2CC[C@H]2C(=O)N1)C(=O)[C@@]1(C)CO1`: the Papp in [1] is 14.8 10^-6 cm/s; in data set [6], 6.8 10^-6 cm/s. Further, the Activity result (in data set [10]; in the data set on ARPE-19; in data set [11]; in data set [13]; with HMC3; in [14]) was “Non-Toxic” in each case. In addition, the Ratio in [2] is 2.17. In addition, the IC50 at 96 h in data set [3] was > 30 µM; in data set [7] it was > 100 µM. The t1/2 in data set [4] was determined as 43 min. Moreover, the Stability in data set [5] amounted to 38.8%.
Regarding `C[C@]1(C(=O)[C@H](Cc2ccccc2)NC(=O)[C@H](CO)NC(=O)c2cccc(=O)[nH]2)CO1`, the IC50 at 96 h in data set [3] was 24.1 µM; in data set [7], > 30 µM.
